According to BindingDB's records for doi:10.7270/Q2G44NQ4 (Emory University, 2007):

What follows are compounds tested against Mothers against decapentaplegic homolog 3 (Homo sapiens, UniProt P84022) (assay: SMAD3 transcription factor inhibitors, dose response (AID 715)).
Mothers against decapentaplegic homolog 3, sequence (P84022 whole entry): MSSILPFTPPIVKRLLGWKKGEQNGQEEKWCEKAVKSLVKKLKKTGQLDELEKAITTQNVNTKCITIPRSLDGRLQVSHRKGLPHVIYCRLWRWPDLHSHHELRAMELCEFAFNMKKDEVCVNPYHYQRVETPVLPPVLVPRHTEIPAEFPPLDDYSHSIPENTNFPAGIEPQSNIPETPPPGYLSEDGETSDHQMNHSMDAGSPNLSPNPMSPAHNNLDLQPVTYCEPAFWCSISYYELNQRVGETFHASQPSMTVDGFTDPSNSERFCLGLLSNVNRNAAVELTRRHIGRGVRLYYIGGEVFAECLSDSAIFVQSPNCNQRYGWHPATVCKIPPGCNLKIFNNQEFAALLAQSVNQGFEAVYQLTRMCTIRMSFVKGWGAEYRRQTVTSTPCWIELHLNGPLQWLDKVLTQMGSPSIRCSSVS

Compared with `CCN(CC)P(=O)(NC(=O)C(Cl)(Cl)Cl)N(CC)CC` [MLS000564159], `CC1(C)CC(=O)C(C2(O)C(=O)NC(=O)NC2=O)C(=O)C1` [5-(4,4-dimethyl-2-oxidanyl-6-oxidanylidene-cyclohexen-1-yl)-5-oxidanyl-1,3-diazinane-2,4,6-trione] is 6.1-fold lower in IC50: 14.1 µM for the first, 2.3 µM for the second. The second is the more potent here.

`O=C1C=CC(CN=Nc2nccs2)C=C1[N+](=O)[O-]` (centres undefined) [(4Z)-2-nitro-4-[(2-thiazolylhydrazo)methylidene]-1-cyclohexa-2,5-dienone] and `Cc1ccc(-[n+]2c(O)csc2[C-](C(Cl)=C(Cl)Cl)[N+](=O)[O-])cc1` [(2E)-3-(4-methylphenyl)-2-[2,3,3-tris(chloranyl)-1-nitro-prop-2-enylidene]-1,3-thiazolidin-4-one] are within 1.5-fold of each other in IC50: 30.9 µM for the first, 27.7 µM for the second.
